Read-outs that look alike come from different tables or passages of the source.
Tests used:
Assay type in all cases: in vivo
[1] = test system: pigweed (Amaranthus retroflexus); assay: Test A preemergence; conditions: Amaranthus retroflexus, pre-emergence, 240 h; for pest or weed control at 125 g/ha: 125 g ai/ha; for pest or weed control at 500 g/ha: 500 g ai/ha, visual injury rating about 10 d after treatment, 0 to 100 scale (0 no effect, 100 complete control)
[2] = test system: pigweed (Amaranthus retroflexus); assay: Test A postemergence; conditions: Amaranthus retroflexus, post-emergence, 240 h, postemergence, read-out: Pigweed plant response rating; for pest or weed control at 125 g/ha: 125 g ai/ha, visual injury on 0 to 100 scale (0 no effect, 100 complete control), approx. 10 d
Summary of the method: (§1)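 Seeded soil received test chemicals as a preemergence directed spray, and seedlings at one to two leaves, 2–10 cm tall, received them postemergence, in a non-phytotoxic, surfactant-containing solvent mixture. Pots were held in a greenhouse for approximately 10 d, then rated for injury from 0, no effect, to 100, complete control.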

[3] = test system: blackgrass (Alopecurus myosuroides); assay: Test A postemergence; conditions: Alopecurus myosuroides, post-emergence, 240 h; for pest or weed control at 125 g/ha: 125 g ai/ha; for pest or weed control at 500 g/ha: 500 g ai/ha
Summary of the method: as §1

corn (Zea mays) = assay: Test A postemergence; conditions: Zea mays, post-emergence, 240 h
Summary of the method: as §1

[4] = test system: barnyardgrass (Echinochloa crus-galli); assay: Test A postemergence; conditions: Echinochloa crus-galli, post-emergence, 240 h; for pest or weed control at 125 g/ha: 125 g ai/ha; for pest or weed control at 500 g/ha: 500 g ai/ha
Summary of the method: as §1

[5] = test system: giant foxtail (Setaria faberii); assay: Test A postemergence; conditions: Setaria faberi, post-emergence, 240 h, postemergence; for pest or weed control at 125 g/ha: 125 g ai/ha, visual injury on 0 to 100 scale (0 no effect, 100 complete control); for pest or weed control at 500 g/ha: 500 g ai/ha
Summary of the method: as §1

[6] = test system: wheat (Triticum aestivum); assay: Test A postemergence; conditions: Triticum aestivum, post-emergence, 240 h, postemergence, read-out: Wheat plant response rating; for plant injury at 125 g/ha: 125 g ai/ha, visual injury on 0 to 100 scale (0 no effect, 100 complete control), approx. 10 d
Summary of the method: as §1

[7] = test system: ryegrass, Italian (Italian ryegrass, Lolium multiflorum); assay: Test A postemergence; conditions: Lolium multiflorum, post-emergence, 240 h, postemergence, read-out: Ryegrass, Italian plant response rating; for pest or weed control at 125 g/ha: 125 g ai/ha, visual injury on 0 to 100 scale (0 no effect, 100 complete control), approx. 10 d
Summary of the method: as §1

Kochia (Kochia scoparia) = assay: Test A postemergence; conditions: Bassia scoparia, post-emergence, 240 h, postemergence; for pest or weed control at 125 g/ha: 125 g ai/ha, visual injury on 0 to 100 scale (0 no effect, 100 complete control); for pest or weed control at 500 g/ha: 500 g ai/ha
Summary of the method: as §1

[8] = test system: ragweed (common ragweed, Ambrosia elatior); assay: Test A postemergence; conditions: Ambrosia artemisiifolia, post-emergence, 240 h, postemergence, read-out: Ragweed plant response rating; for pest or weed control at 125 g/ha: 125 g ai/ha, visual injury on 0 to 100 scale (0 no effect, 100 complete control), approx. 10 d
Summary of the method: as §1

[9] = test system: Galium (catchweed bedstraw, Galium aparine); assay: Test A postemergence; conditions: Galium, post-emergence, 240 h, postemergence; for pest or weed control at 125 g/ha: 125 g ai/ha, visual injury on 0 to 100 scale (0 no effect, 100 complete control); for pest or weed control at 500 g/ha: 500 g ai/ha
Summary of the method: as §1

[10] = test system: ducksalad (Heteranthera limosa); assay: Test B flooded paddy test; conditions: Heteranthera limosa, 250 g ai/ha, Flood; 0 to 100 scale where 0 is no effect and 100 is complete control; read-out: Ducksalad plant response rating
Summary of the method: (§2)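 Flooding to 3 cm over soil accompanied treatment, which consisted of adding compound to the standing water around 2-leaf plants; depth was then maintained. Visual assessment versus controls followed at 13 to 15 d (scale 0–100, 0 meaning no effect).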

[11] = test system: sedge, umbrella (small-flower umbrella sedge, Cyperus difformis); assay: Test B flooded paddy test; conditions: Cyperus difformis, 250 g ai/ha, Flood; 0 to 100 scale where 0 is no effect and 100 is complete control; read-out: Sedge, Umbrella plant response rating
Summary of the method: as §2

[12] = test system: barnyardgrass (Echinochloa crus-galli); assay: Test B flooded paddy test; conditions: Echinochloa crus-galli, 250 g ai/ha, Flood; 0 to 100 scale where 0 is no effect and 100 is complete control; read-out: Barnyardgrass plant response rating
Summary of the method: as §2

rice (Oryra sativa) = assay: Test B flooded paddy test; conditions: Oryza sativa, 250 g ai/ha, Flood; 0 to 100 scale where 0 is no effect and 100 is complete control; read-out: Rice plant response rating
Summary of the method: as §2

[13] = preemergence, read-out: Pigweed plant response rating
[14] = 500 g ai/ha, 0 to 100 scale, 0 is no effect, 100 is complete control
[15] = approx. 10 d, read-out: Foxtail, Giant plant response rating
[16] = approx. 10 d, read-out: Kochia plant response rating
[17] = approx. 10 d, read-out: Galium plant response rating

Structure (SMILES)	pest or weed control at 500 g/ha [1, 13] [%]	pest or weed control at 125 g/ha [2] [%]	pest or weed control at 125 g/ha [5, 15] [%]	plant injury at 125 g/ha [6] [%]	pest or weed control at 125 g/ha [7] [%]	pest or weed control at 125 g/ha (Kochia (Kochia scoparia); [16]) [%]	pest or weed control at 125 g/ha [8] [%]	pest or weed control at 125 g/ha [9, 17] [%]	pest or weed control at 250 g/ha [10] [%]	pest or weed control at 250 g/ha [11] [%]	pest or weed control at 250 g/ha [12] [%]	pest or weed control at 250 g/ha (rice (Oryra sativa)) [%]	further results
Cc1cc([C@H]2CN(C)C(=O)[C@@H]2C(=O)Nc2ccc(F)cc2F)ccc1Br [Compound 1100]	0	0	70	0	20	0	0	0	75	0	0	0	pest or weed control at 125 g/ha ([1]; preemergence, 0 to 100 scale where 0 is no effect and 100 is complete control, approx. 10 d, read-out: Pigweed plant response rating): 0%; pest or weed control at 500 g/ha [2, 14]: 0%; pest or weed control at 125 g/ha ([3]; postemergence, visual injury on 0 to 100 scale (0 no effect, 100 complete control), approx. 10 d, read-out: Blackgrass plant response rating): 0%; pest or weed control at 500 g/ha ([3]; postemergence, 0 to 100 scale, 0 is no effect, 100 is complete control, read-out: Blackgrass plant response rating): 20%; plant injury at 125 g/ha (corn (Zea mays); 125 g ai/ha, postemergence, visual injury on 0 to 100 scale (0 no effect, 100 complete control), approx. 10 d, read-out: Corn plant response rating): 0%; plant injury at 500 g/ha (corn (Zea mays); 500 g ai/ha, postemergence, 0 to 100 scale, 0 is no effect, 100 is complete control, read-out: Corn plant response rating): 20%; pest or weed control at 125 g/ha ([4]; postemergence, visual injury on 0 to 100 scale (0 no effect, 100 complete control), approx. 10 d, read-out: Barnyardgrass plant response rating): 60%; pest or weed control at 500 g/ha ([4]; postemergence, 0 to 100 scale, 0 is no effect, 100 is complete control, read-out: Barnyardgrass plant response rating): 70%; pest or weed control at 500 g/ha ([5]; 0 to 100 scale, 0 is no effect, 100 is complete control, read-out: Foxtail, Giant plant response rating): 70%; plant injury at 500 g/ha [6, 14]: 20%; pest or weed control at 500 g/ha [7, 14]: 20%; pest or weed control at 500 g/ha (Kochia (Kochia scoparia); 0 to 100 scale, 0 is no effect, 100 is complete control, read-out: Kochia plant response rating): 20%; pest or weed control at 500 g/ha [8, 14]: 0%; pest or weed control at 500 g/ha ([9]; 0 to 100 scale, 0 is no effect, 100 is complete control, read-out: Galium plant response rating): 20%
Cc1ccc([C@H]2CN(C)C(=O)[C@@H]2C(=O)Nc2ccccc2F)cc1C [Compound 1038]	30	0	90	20	20	40	0	50	100	0	65	0	pest or weed control at 125 g/ha ([1]; Preemergence, visual injury rating after approximately 10 d, read-out: Pigweed plant response rating (0 to 100 scale, 0 is no effect, 100 is complete control)): 20%; pest or weed control at 125 g/ha ([3]; Postemergence, visual injury after approximately 10 d, 0 to 100 scale where 0 is no effect and 100 is complete control, read-out: Plant response rating, Blackgrass): 30%; pest or weed control at 500 g/ha ([3]; postemergence, visual injury, 0 to 100 scale (0 no effect, 100 complete control), approx. 10 d, read-out: Plant response rating, Blackgrass): 50%; Corn plant response rating (crop injury, 0 = no effect, 100 = complete kill) at 125 g/ha (corn (Zea mays); 125 g ai/ha, Postemergence, visual injury after approximately 10 d, 0 to 100 scale where 0 is no effect and 100 is complete control): 60%; Corn plant response rating (crop injury, 0 = no effect, 100 = complete kill) at 500 g/ha (corn (Zea mays); 500 g ai/ha, postemergence, visual injury, 0 to 100 scale (0 no effect, 100 complete control), approx. 10 d): 80%; pest or weed control at 125 g/ha ([4]; Postemergence, visual injury after approximately 10 d, 0 to 100 scale where 0 is no effect and 100 is complete control, read-out: Plant response rating, Barnyardgrass): 90%; pest or weed control at 500 g/ha ([4]; postemergence, visual injury, 0 to 100 scale (0 no effect, 100 complete control), approx. 10 d, read-out: Plant response rating, Barnyardgrass): 90%; pest or weed control at 500 g/ha ([5]; visual injury, 0 to 100 scale (0 no effect, 100 complete control), approx. 10 d, read-out: Plant response rating, Foxtail, Giant): 90%; pest or weed control at 500 g/ha (Kochia (Kochia scoparia); visual injury, 0 to 100 scale (0 no effect, 100 complete control), approx. 10 d, read-out: Plant response rating, Kochia): 80%; pest or weed control at 500 g/ha ([9]; visual injury, 0 to 100 scale (0 no effect, 100 complete control), approx. 10 d, read-out: Plant response rating, Galium): 70%

Source: patent US12077503B2, “Substituted cyclic amides and their use as herbicides” (FMC CORPORATION, priority 2015, dated 2024)
